In ChEMBL document CHEMBL1201862, “PubChem BioAssay data set” (2004):
Calls of active or inactive are those of the source.

Tests used:
Aminopeptidase N = target: T1, Aminopeptidase N (Plasmodium falciparum FcB1/Columbia, UniProt O96935); assay: P. falciparum M1AAP inhibitors, biochemical, fluorogenic H-Leu-NHMec substrate, 1536-well (AID 1445); set-up: species or system Plasmodium falciparum 3D7, 3D7
T1 sequence (O96935 whole entry): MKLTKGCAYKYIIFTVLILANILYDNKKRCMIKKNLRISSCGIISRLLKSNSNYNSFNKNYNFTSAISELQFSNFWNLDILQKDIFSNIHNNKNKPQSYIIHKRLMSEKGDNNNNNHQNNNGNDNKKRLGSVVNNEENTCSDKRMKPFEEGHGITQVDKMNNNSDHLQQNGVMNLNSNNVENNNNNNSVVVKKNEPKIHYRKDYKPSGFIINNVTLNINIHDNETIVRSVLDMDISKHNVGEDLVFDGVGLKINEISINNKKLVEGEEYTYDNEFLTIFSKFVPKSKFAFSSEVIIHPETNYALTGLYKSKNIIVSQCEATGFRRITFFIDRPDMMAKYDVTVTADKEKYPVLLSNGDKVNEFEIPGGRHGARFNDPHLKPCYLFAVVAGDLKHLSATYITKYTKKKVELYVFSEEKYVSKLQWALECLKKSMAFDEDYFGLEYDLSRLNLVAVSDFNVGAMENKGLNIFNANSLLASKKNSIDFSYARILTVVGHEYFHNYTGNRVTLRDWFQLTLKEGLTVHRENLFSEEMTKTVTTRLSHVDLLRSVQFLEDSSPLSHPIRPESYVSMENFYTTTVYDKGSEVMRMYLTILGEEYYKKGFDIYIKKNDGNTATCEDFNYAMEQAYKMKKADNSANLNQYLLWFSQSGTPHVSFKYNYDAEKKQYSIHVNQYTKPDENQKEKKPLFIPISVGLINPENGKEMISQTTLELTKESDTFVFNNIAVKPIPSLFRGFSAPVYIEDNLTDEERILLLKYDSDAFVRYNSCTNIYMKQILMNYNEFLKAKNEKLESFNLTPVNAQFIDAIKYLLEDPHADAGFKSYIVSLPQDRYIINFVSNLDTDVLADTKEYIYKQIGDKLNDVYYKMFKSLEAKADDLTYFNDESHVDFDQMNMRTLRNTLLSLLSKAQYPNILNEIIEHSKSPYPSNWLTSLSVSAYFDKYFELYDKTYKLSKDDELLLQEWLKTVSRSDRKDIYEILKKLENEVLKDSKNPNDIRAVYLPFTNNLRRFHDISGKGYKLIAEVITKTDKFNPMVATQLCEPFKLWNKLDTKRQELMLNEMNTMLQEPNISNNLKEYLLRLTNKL

[1] = target: Intestinal-type alkaline phosphatase (Homo sapiens, UniProt P09923); assay: inhibition of human intestinal alkaline phosphatase – biochemical, dose response (AID 488876); type: functional
Intestinal-type alkaline phosphatase (Homo sapiens, UniProt P09923), sequence (P09923 whole entry): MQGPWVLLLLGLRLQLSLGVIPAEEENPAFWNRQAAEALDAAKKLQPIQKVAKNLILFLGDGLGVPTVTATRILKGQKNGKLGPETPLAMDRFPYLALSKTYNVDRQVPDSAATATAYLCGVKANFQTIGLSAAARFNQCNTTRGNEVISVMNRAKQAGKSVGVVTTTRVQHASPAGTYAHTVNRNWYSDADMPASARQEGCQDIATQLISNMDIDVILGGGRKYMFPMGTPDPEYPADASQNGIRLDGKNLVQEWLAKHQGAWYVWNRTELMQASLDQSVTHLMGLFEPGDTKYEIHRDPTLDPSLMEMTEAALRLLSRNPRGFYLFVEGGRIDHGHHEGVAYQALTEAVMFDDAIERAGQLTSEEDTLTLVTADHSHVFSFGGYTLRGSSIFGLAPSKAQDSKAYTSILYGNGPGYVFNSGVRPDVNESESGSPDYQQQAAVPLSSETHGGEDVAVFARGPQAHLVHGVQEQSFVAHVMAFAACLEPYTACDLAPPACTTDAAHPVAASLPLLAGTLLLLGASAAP

[2] = target: Intestinal-type alkaline phosphatase (Mus musculus, UniProt P24822); assay: PubChem AID 488785; type: functional
Intestinal-type alkaline phosphatase (Mus musculus, UniProt P24822), sequence (P24822 whole entry): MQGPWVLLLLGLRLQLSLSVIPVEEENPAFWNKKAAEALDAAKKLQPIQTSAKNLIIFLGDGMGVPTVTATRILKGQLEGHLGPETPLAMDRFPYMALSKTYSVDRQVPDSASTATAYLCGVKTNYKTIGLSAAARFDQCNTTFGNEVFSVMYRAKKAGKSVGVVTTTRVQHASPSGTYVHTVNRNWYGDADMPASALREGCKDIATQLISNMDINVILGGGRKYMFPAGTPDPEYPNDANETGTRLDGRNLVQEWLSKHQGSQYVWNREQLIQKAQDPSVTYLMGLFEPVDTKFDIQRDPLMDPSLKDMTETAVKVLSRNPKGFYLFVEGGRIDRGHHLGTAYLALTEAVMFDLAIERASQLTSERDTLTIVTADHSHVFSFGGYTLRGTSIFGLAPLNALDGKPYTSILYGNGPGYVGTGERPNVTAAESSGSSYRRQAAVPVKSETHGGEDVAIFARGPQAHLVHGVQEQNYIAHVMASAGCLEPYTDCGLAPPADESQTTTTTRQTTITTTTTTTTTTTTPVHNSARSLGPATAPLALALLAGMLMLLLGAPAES

[3] = target: T2, Alkaline phosphatase, tissue-nonspecific isozyme (Homo sapiens, UniProt P05186); assay: TNAP enzyme inhibition by screening hits, dose response, selectivity assay for mouse IAP inhibitor project, biochemical, human TNAP, uHTS hits (AID 488906); type: functional
T2 sequence (P05186 whole entry): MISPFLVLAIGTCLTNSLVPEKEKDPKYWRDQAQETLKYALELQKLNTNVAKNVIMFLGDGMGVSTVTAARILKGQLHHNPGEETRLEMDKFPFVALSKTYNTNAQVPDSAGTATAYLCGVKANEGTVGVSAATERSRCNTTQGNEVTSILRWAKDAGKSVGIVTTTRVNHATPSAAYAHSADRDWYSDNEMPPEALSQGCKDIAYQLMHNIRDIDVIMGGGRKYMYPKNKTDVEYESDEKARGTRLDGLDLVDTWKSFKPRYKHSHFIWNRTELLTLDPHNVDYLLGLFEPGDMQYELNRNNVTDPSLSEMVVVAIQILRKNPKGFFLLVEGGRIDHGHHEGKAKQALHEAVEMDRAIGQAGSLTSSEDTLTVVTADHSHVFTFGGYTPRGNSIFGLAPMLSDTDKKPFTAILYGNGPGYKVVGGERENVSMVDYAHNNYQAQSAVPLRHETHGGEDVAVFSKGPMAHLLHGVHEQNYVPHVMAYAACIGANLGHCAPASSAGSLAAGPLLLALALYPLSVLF

[4] = target: FAD-linked sulfhydryl oxidase ALR (Homo sapiens, UniProt P55789); assay: inhibitors of human ALR sulfhydryl oxidase, dose response, biochemical, H2O2 detection, luminescence, cherry-pick (AID 493248)
[5] = NIH-3T3 fibroblast cytotoxicity, dose response, cytotoxicity control, cell-based, fluorescence, Alamar Blue, secondary assay (AID 2327); type: functional;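 note: NIH-3T3 mouse fibroblasts cultured with fluconazole at 8 µg/mL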
[6] = C. albicans growth with fluconazole, confirmation, fluorescence, retest (AID 2467); type: functional, cell-based
HeLa = assay: HeLa cell cytotoxicity, dose response, cytotoxicity control for MITF activator project, CellTiter-Glo luminescence, cherry-pick samples (AID 540259); type: functional, cell-based; settings: Homo sapiens
[7] = cytotoxicity in MIN6 insulinoma cells, dose response, cytotoxicity control, cell-based, mouse insulinoma (AID 2122); type: functional;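 note: confirmatory high-throughput counterscreen run to flag cytotoxic compounds; mouse MIN-6 beta cells carrying an insulin promoter eGFP reporter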
[8] = cytotoxicity toward NIH3T3 fibroblasts, dose response, counter-screen, cell-based, ATP luminescence, mouse fibroblasts (AID 2010); type: functional;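 note: cells exposed to compound for about 90 hours before reading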
[9] = insulin promoter down-regulators in MIN6 cells, imaging, high-content screening, mouse beta cells (AID 1628); type: functional
[10] = inhibitors of intracellular T. cruzi replication, confirmation, NIH3T3 host cells, beta-gal luminescence (AID 2044); type: functional, cell-based;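 note: intracellular parasites grown in NIH/3T3 mouse fibroblasts as host cells; luminescent beta-galactosidase reporter signal from transgenic T. cruzi replicating inside host cells; inhibitors lower the luminescence signal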
[11] = target: T3, Heat shock factor protein 1 (Mus musculus, UniProt P38532); assay: inhibition of MG132-induced HSE-luciferase signal, confirmation, cell-based, NIH3T3, luminescence, dose retest (AID 2382); type: functional;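 note: NIH3T3 fibroblasts with HSF1-driven luciferase reporter stressed by proteasome inhibitor MG132; luminescence from HSF1-driven luciferase expression after 8 hours of MG132 stress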
T3 sequence (P38532 whole entry): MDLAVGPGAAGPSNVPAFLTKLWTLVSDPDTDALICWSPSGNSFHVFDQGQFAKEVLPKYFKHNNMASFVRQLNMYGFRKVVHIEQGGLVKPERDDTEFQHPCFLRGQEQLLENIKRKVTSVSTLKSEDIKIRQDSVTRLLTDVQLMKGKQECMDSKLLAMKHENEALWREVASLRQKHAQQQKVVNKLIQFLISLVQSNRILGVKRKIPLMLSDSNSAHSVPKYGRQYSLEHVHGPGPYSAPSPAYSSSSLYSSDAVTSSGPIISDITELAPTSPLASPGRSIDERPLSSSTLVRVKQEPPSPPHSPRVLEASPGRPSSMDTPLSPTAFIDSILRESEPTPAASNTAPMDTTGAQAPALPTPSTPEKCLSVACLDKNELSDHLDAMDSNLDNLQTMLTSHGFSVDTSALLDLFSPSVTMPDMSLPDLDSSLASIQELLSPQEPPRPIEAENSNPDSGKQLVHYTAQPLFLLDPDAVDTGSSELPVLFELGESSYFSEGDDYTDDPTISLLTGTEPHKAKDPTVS

Escherichia coli [12] = assay: microbe, parasite or virus in culture
[13] = target: G-protein coupled receptor 55 (Homo sapiens, UniProt Q9Y2T6); assay: GPR55 agonists via beta-arrestin recruitment, primary screen, imaging, U2OS cells, beta-arrestin-GFP redistribution (AID 1961); type: functional
H4 = assay: Luminescence Cell-Based Dose Response HTS to Identify Activators of 5'UTR Stem-Loop Driven Prion Protein mRNA Translation in H4 Neuroglioblastoma Cells. [Related pubchem assays: 1829 (Project Summary), 1814 (Primary HTS)]; type: functional; settings: Homo sapiens
[14] = Luminescence Cell-Based Dose Response HTS to Identify Activators of Luciferase Translation or Activity in H4 […] Cells. [Related pubchem assays: 1829 (Project Summary), 1814 (Primary HTS)]; type: functional
[15] = Luminescence Cell-Based Dose Confirmation HTS to Identify Activators of 5'UTR Stem-Loop Driven Alpha-Synuclein mRNA Translation in H4 Neuroglioblastoma Cells. [Related pubchem assays: 1829 (Project Summary), 1814 (Primary HTS)]; type: functional
Escherichia coli [16] = assay: microbe, parasite or virus in culture; remark: listed apart in the source
[17] = target: Peroxisome proliferator-activated receptor gamma/Nuclear receptor coactivator 3 (Homo sapiens, UniProt P37231); assay: TR-FRET dose response biochemical High Throughput Screening assay for agonists of the steroid receptor coactivator 3 (SRC-3) recruitment by the peroxisome proliferator-activated receptor gamma (PPAR gamma): non-selective agonists. [Related pubchem assays: 1301 (Confirmation screen.), 1048 (Primary screen.)]; type: functional
[18] = target: T4, RNA-binding protein pos-1 (Caenorhabditis elegans, UniProt G5EF15); assay: inhibitors of POS-1/mex-3 RNA binding, dose response, biochemical, fluorescence polarization (AID 1964);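 note: purified POS-1 fused to maltose binding protein made in E. coli; potency of compounds blocking POS-1 binding to fluorescent RNA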
T4 sequence (G5EF15 whole entry): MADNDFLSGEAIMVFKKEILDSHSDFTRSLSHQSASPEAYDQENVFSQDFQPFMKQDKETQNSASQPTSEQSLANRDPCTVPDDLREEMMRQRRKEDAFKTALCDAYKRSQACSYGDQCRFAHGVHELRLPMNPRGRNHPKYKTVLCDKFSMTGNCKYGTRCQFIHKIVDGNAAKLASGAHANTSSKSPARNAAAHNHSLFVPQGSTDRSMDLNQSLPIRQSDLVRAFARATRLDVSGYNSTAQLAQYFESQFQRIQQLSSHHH

[19] = target: Peroxisome proliferator-activated receptor gamma/Nuclear receptor coactivator 2 (Homo sapiens, UniProt P37231); assay: TR-FRET dose response biochemical High Throughput Screening assay for agonists of the steroid receptor coactivator 2 (SRC-2) recruitment by the peroxisome proliferator-activated receptor gamma (PPAR gamma): non-selective agonists. [Related pubchem assays: 1297, 1032 ]; type: functional
Peroxisome proliferator-activated receptor gamma/Nuclear receptor coactivator 2, sequence (P37231 whole entry): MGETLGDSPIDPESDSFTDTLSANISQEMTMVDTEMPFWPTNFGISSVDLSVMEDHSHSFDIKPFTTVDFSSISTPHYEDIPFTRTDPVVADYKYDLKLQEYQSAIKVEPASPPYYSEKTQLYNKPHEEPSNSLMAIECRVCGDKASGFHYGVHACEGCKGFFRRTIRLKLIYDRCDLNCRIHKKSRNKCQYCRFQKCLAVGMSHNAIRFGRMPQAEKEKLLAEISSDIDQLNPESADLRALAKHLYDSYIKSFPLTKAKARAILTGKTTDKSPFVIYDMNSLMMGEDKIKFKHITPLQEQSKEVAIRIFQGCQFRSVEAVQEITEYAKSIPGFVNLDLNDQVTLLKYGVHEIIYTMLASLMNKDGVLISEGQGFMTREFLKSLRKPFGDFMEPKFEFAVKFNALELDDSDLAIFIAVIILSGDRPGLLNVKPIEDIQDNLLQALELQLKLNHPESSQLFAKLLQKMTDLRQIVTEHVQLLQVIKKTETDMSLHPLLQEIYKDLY
Peroxisome proliferator-activated receptor gamma/Nuclear receptor coactivator 2, sequence (Q15596 whole entry, further chain): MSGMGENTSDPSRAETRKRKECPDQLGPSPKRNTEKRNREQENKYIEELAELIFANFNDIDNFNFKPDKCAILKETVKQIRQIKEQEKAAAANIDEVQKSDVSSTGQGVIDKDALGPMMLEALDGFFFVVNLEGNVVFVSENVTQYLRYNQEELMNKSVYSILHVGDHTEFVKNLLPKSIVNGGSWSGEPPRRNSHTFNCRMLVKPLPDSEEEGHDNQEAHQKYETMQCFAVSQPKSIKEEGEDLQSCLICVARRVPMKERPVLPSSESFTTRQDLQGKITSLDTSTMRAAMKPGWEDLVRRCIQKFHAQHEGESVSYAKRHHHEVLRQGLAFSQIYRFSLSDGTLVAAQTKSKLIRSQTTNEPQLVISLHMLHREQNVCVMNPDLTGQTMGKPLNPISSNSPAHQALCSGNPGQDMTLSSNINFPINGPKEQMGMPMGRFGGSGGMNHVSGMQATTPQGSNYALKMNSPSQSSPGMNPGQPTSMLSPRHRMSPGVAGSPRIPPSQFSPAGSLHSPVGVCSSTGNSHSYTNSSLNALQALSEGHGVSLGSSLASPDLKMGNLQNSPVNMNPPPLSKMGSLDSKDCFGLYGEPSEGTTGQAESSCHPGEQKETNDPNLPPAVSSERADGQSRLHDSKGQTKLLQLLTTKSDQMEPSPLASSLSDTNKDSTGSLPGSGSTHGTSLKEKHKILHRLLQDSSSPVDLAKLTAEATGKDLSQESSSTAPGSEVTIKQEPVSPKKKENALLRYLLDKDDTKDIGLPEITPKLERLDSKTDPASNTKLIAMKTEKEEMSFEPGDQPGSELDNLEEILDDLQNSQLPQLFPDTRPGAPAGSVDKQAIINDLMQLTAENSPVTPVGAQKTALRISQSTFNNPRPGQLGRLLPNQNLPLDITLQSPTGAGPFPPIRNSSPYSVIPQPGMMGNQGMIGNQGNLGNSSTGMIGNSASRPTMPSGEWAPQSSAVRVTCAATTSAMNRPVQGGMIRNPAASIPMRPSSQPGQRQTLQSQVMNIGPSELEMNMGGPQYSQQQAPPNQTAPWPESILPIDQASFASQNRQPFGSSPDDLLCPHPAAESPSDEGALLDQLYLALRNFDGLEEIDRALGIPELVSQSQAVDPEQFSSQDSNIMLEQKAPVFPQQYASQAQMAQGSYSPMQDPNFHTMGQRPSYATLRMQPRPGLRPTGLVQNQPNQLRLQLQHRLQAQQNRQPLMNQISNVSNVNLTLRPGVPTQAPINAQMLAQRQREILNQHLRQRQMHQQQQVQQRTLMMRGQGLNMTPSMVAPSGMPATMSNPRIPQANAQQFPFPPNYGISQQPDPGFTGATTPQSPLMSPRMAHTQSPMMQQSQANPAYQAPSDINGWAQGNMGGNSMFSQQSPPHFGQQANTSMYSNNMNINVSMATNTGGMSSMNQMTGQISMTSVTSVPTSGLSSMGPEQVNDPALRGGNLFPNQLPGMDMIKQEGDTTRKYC

[20] = target: Peroxisome proliferator-activated receptor gamma/Nuclear receptor coactivator 1 (Homo sapiens, UniProt P37231); assay: TR-FRET dose response biochemical High Throughput Screening assay for agonists of the steroid receptor coactivator 1 (SRC-1) recruitment by the peroxisome proliferator-activated receptor gamma (PPAR gamma): non-selective agonists. [Related pubchem assays (depositor defined):AID1300, AID1808, AID504735, AID631]; type: protein assay
Peroxisome proliferator-activated receptor gamma/Nuclear receptor coactivator 1, sequence (P37231 whole entry): as the sequence (P37231 whole entry) above
Peroxisome proliferator-activated receptor gamma/Nuclear receptor coactivator 1, sequence (Q15788 whole entry, further chain): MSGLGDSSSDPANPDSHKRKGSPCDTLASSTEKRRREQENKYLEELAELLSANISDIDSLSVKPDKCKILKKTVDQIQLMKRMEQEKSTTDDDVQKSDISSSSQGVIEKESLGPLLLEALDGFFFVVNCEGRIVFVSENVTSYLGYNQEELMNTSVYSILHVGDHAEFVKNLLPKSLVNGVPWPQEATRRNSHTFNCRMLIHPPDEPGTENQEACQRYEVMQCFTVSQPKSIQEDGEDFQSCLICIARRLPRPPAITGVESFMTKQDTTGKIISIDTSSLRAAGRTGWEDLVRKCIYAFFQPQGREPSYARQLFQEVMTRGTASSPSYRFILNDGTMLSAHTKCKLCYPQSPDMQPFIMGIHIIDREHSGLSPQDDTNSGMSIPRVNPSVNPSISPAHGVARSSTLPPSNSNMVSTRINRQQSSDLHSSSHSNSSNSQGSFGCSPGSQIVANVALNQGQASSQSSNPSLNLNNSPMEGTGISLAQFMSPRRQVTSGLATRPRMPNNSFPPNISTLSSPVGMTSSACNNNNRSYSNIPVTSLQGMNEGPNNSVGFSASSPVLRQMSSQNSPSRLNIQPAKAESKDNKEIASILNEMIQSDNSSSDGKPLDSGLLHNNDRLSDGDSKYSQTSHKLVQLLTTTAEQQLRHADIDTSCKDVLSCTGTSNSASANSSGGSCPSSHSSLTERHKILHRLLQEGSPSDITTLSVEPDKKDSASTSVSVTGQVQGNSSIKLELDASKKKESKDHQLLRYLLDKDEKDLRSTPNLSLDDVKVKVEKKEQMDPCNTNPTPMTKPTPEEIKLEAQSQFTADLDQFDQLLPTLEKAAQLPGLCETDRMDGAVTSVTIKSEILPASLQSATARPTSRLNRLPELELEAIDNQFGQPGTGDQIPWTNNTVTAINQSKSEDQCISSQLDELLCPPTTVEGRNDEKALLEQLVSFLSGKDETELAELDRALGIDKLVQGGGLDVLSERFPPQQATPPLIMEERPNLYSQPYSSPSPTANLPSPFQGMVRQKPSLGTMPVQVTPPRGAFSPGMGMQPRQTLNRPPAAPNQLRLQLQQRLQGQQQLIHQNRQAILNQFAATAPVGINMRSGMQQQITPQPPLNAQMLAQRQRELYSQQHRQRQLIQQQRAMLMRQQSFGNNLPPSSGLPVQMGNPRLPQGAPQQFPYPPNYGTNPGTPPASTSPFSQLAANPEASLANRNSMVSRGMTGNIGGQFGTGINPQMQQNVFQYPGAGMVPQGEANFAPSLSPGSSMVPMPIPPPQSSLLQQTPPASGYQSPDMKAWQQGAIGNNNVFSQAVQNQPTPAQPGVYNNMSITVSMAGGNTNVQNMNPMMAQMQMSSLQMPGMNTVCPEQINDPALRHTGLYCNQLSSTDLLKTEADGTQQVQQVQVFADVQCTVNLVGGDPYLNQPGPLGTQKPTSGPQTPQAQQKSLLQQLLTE

[21] = target: T5, Zinc finger protein mex-5 (Caenorhabditis elegans, UniProt Q9XUB2); assay: MEX-5/TCR-2 RNA interaction inhibitors, dose response, biochemical, C. elegans, fluorescence polarization (AID 1960)
T5 sequence (Q9XUB2 whole entry): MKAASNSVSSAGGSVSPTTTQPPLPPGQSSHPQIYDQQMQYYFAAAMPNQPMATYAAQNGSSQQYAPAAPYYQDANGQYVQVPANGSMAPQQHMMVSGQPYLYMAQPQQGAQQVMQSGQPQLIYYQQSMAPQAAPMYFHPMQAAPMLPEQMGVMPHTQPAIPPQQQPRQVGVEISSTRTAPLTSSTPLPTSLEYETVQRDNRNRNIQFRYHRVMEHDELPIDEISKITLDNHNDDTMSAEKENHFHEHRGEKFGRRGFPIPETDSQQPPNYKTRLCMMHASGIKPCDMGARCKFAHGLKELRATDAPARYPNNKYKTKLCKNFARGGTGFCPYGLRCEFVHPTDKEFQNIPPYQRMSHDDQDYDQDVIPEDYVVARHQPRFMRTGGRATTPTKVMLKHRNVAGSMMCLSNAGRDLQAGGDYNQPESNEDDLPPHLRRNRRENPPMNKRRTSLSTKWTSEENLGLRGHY

[22] = HEp-2 cell cytotoxicity, dose response, cytotoxicity control for RSV inhibitor project, HTS (AID 2410); type: functional; settings: human respiratory syncytial virus

SMILES: Cc1ccc(S(=O)(=O)Nc2ccc(O)c(Sc3nc[nH]n3)c2)cc1
- IC50 (Aminopeptidase N): 83.8 µM (active)
- IC50 [1]: > 100 µM (inactive)
- IC50 [2]: 13.8 µM (active)
- IC50 [3]: > 100 µM (inactive)
- AC50 [4]: 3.31 µM (active)

SMILES: Cc1ccc(N2NC(C)(c3cccs3)N=C2S)cc1 (stereo not given)
- EC50 [5]: 7.74 µM (active)
- EC50 [6]: 1.27 µM (active)
- AC50 (HeLa): > 350 µM (inactive)

SMILES: CCN(CC)c1nc(-c2ccccn2)nc(-c2ccccc2)c1C#N
- EC50 [5]: > 160 µM (inconclusive)
- IC50 [7]: 3.09 µM (active)
- EC50 [6]: > 38 µM (not active)
- EC50 [8]: 6.71 µM (active)
- IC50 [9]: 2.71 µM (active)
- EC50 [10]: 1.57 µM (active)

SMILES: O=C(c1ccc(Cl)cc1)C1CCCN(Cc2ccc3c(c2)OCCO3)C1 (stereo not given)
- EC50 [11]: > 195 µM (not active)
- AC50 (Escherichia coli [12]): 190 µM (active)

SMILES: CC(C)C[C@@H](CSc1ccccc1)N1CCN(CC(C)C)CCC1=O
- EC50 [13]: 14.1 µM (inactive)
- AC50 (HeLa): 147 µM (active)
- EC50 (H4): > 120 µM (not active)
- EC50 [14]: 41.4 µM (active)
- EC50 [15]: 5.27 µM (active)

SMILES: COc1cc(C(=O)NN2C(=O)/C(=C3\C(=O)Nc4ccccc43)SC2=S)ccc1O
- IC50 [1]: > 100 µM (inactive)
- IC50 [2]: 6.07 µM (active)
- IC50 [3]: 22.2 µM (active)

SMILES: NS(=O)(=O)c1ccc(CCNc2ncnc3sccc23)cc1
- IC50 [7]: 1.06 µM (active)
- IC50 [9]: 2.01 µM (active)

SMILES: c1ccc(Nc2cc(-c3ccccc3)nc3ncnn23)cc1
- AC50 (Escherichia coli [16]): 18.4 µM (active)
- AC50 (Escherichia coli [12]): 72 µM (active)

SMILES: COc1cccc(C2C(C(=O)c3cc4cccc(OC)c4o3)=C(O)C(=O)N2c2cc(C)on2)c1OC (stereo not given)
- EC50 [17]: > 79.4 µM (not active)
- EC50 [18]: > 300 µM (not active)
- EC50 [19]: 19.6 µM (not active)
- EC50 [20]: > 79.4 µM (inactive)
- EC50 [21]: > 300 µM (not active)

SMILES: N=C(NOC(=O)c1ccc2c(c1)OCO2)c1ccc(Cl)cc1
- AC50 (HeLa): 69 µM (active)

SMILES: O=c1cc(CSc2nc3nncc-3c(O)n2-c2ccc(Br)cc2)nc2ccc(Br)cn12
- EC50 [17]: 48.1 µM (not active)
- EC50 [19]: 11.6 µM (not active)
- EC50 [20]: 15.8 µM (inactive)
- CC50 [22]: 22.8 µM (active)

SMILES: O=C(CS(=O)(=O)c1ccc(Cl)c(Cl)c1)Nc1ccccc1Cl
- AC50 (Escherichia coli [16]): 47.2 µM (active)
- AC50 (Escherichia coli [12]): 300 µM (active)
